Data reported in publication PMC8113231 (Nature Communications, 2021).
Where a SMILES comes first, the peptide text is derived from it. Bridges are numbered along the chain shown (N, C = ends).

What was measured:
[1] = test system: H1N1/Tokyo2619; type: cell-based, influenza A virus
[2] = test system: H5N1/Vac-3; type: cell-based, influenza A virus
[3] = test system: A/Puerto Rico/8/34 (H1N1/PR8); assay: microbe, parasite or virus in culture; type: cell-based; conditions: Influenza A virus, MDCK; 48–72 h; read-out: EC50, plaque reduction, H1N1/PR8
[4] = test system: A/whooper swan/Hokkaido/1/08 (H5N1); set-up: species or system BALB/c mice; conditions: mouse, in vivo
[5] = test system: A/Narita/1/09 (H1N1/Narita); assay: microbe, parasite or virus in culture; type: cell-based; conditions: Influenza A virus, H1N1, MDCK; 48–72 h; read-out: EC50, plaque reduction, H1N1/Narita
[6] = test system: A/Adachi/2/57 (H2N2); assay: microbe, parasite or virus in culture; type: cell-based; conditions: Influenza A virus, H2N2, MDCK; 48–72 h; read-out: EC50, plaque reduction, H2N2/Adachi
[7] = test system: A/whooper swan/Hokkaido/1/08 (H5N1/Hokkaido; clade 2.3.2.1); assay: microbe, parasite or virus in culture; type: cell-based; conditions: Influenza A virus, H5N1, MDCK; 48–72 h; read-out: EC50, plaque reduction, H5N1/Hokkaido (clade 2.3.2.1)
[8] = test system: A/whooper swan/Mongolia/3/05 (H5N1/Mongolia; clade 2.2); assay: microbe, parasite or virus in culture; type: cell-based; conditions: Influenza A virus, H5N1, MDCK; 48–72 h; read-out: EC50, plaque reduction, H5N1/Mongolia (clade 2.2)
[9] = test system: A/duck/Hokkaido/Vac-3/07 (H5N1/Vac-3); assay: microbe, parasite or virus in culture; type: cell-based, influenza A virus; conditions: Influenza A virus, H5N1, MDCK; 48–72 h; read-out: EC50, plaque reduction, H5N1/Vac-3
[10] = test system: A/Tokyo/2619/09 (H1N1/Tokyo2619); assay: microbe, parasite or virus in culture; type: cell-based; conditions: Influenza A virus, H1N1, MDCK; 48–72 h; read-out: EC50, plaque reduction, H1N1/Tokyo2619

**Q.** With CC[C@H](C)[C@@H]1NC(=O)[C@H](C)NC(=O)[C@H](Cc2c[nH]c3ccccc23)NC(=O)[C@H](CCC(=O)O)NC(=O)[C@H](CC(C)C)NC(=O)[C@@H]2CCCN2C(=O)[C@H](Cc2ccccc2)NC(=O)[C@H](CCCCN)NC(=O)[C@H](Cc2c[nH]c3ccccc23)NC(=O)[C@H](CC(N)=O)NC(=O)[C@H](C(C)C)NC(=O)CSC[C@@H](C(=O)NCC(N)=O)NC(=O)[C@H](Cc2ccc(O)cc2)NC(=O)[C@H](CCCNC(=N)N)NC1=O [iHA-12sf, reference compound] ({CH2CO}-VNWKFPLEWAIRYCG-NH2; thioether N-14) as the molecule, how does the “H1N1/Tokyo2619 virus-mediated RBC membrane fusion” value [1] read?
**A.** did not reduce RBC membrane fusion

**Q.** And the “H5N1/Vac-3 virus-mediated RBC membrane fusion” value [2]?
**A.** did not reduce RBC membrane fusion

**Q.** How did the EC50 [3] turn out when CC(=O)N[C@H]1[C@H]([C@H](O)[C@H](O)CO)OC(C(=O)O)=C[C@@H]1N=C(N)N [zanamivir] was run?
**A.** 115 nM

**Q.** What about the “Survival outcome, delayed administration” value [4] of the same molecule?
**A.** all mice in the zanamivir-treated group died

**Q.** What about the EC50 [5] of the same molecule?
**A.** > 1000 nM

**Q.** And the EC50 [6]?
**A.** 60 nM

**Q.** What about the EC50 [7] of the same molecule?
**A.** < 10 nM

**Q.** And the EC50 [8]?
**A.** < 10 nM

**Q.** What about the EC50 [9] of the same molecule?
**A.** 42 nM

**Q.** What about the EC50 [10] of the same molecule?
**A.** > 1000 nM
